# Laboratory results as given in US20250382305A1 (PTC THERAPEUTICS, INC., priority 2022, published 2025).
# Assays:
# ATXN3 pre-mRNA = test: RT-qPCR Assay to Quantify Exon 4 Skipping in ATXN3 pre-mRNA in Cells; type: cell-based; details: percent exon 4 skipping in ATXN3 pre-mRNA, RT-qPCR of cell lysates; average IC50
# Protocol: RT-qPCR Assay to Quantify Exon 4 Skipping in ATXN3 pre-mRNA in Cells
# (§1) Test compounds were serially diluted 3.16-fold in 100% DMSO to generate a 7-point concentration curve. Aliquots of 0.5 μL of diluted compounds were transferred to a 96-well flat bottom plate by a liquid handler. An aliquot of 0.5 μL DMSO was also transferred to separate wells and used as controls. Duplicate samples were set up for each compound concentration and for the DMSO control.
# Cells were thawed and incubated in cell culture media (DMEM, 10% FBS, and 1% antibiotic cocktail) for 72 h. Cells were trypsinized, counted, and re-suspended to a concentration of 100,000 cells/mL in cell culture media. A 100 μL aliquot of the cell suspensions were plated at 10,000 cells per well in the compound containing 96 well microtiter plate and incubated for in a cell culture incubator (37° C., 5% CO2, 100% relative humidity).
# After 24 h, media was aspirated from the cells and 50 μL of the RCL2 lysis buffer (10 mM Tris-HCL pH 7.4, 150 mM NaCl, 0.33% IGEPAL® CA-630) was added to each well and incubated at RT for 1 min. Chilled nuclease free water (50 μL per well) was added and the plates were immediately transferred on ice. After 1 min on ice, plates were frozen at −80° C. overnight.
# Preparation of RT-qPCR Reaction Mixture:
# An aliquot of 2 μL/well of the cell lysates was transferred using the liquid handler to the Armadillo 384-Well PCR plate containing 8 μL/well of the RT-qPCR reaction mixture that was prepared as detailed above. The plates were then sealed with MicroAmp™ Optical Adhesive Film followed by spinning down for 1 min and placed in the CFX384 thermocycler (BioRad).
# The RT-qPCR was carried out at the following temperatures for the indicated time: • Step 1: 48° C. (30 min) • Step 2: 95° C. (10 min) • Step 3: 95° C. (15 sec) • Step 4: 60° C. (1 min); then, repeated Steps 3 and 4 for a total of 40 cycles.
# The percent exon 4 skipping was calculated for each dose of compound treatment using Equations 1 and 2.
# Data were fit to a dose response curve and the IC50 was interpolated using XLfit® statistical and curve fitting package.
# (§2) An average IC50>1 μM is indicated by one star (*), between >0.3 μM and ≤1 μM is indicated by two stars (**), between >0.03 μM and ≤0.3 μM is indicated by three stars (***), and ≤0.03 μM is indicated by four stars (****).
# [1] = test system: Total ATXN3 (tATXN3) protein; test: Endogenous Total ATXN3 (tATXN3) Protein Assay (MSD immunoassay of cell lysates); type: cell-based; details: average IC50, total ATXN3 protein in cell lysate after 48 h with compound (Table 1)
# Protocol: Endogenous Total ATXN3 (tATXN3) Protein Assay
# Meso Scale Discovery (MSD) 96-well or 384-well plates were coated overnight at 4° C. with Ataxin 3 mouse monoclonal antibody (Invitrogen, MA3-082) at a concentration of 0.5 μg/mL in PBS (30 μL per well). Plates were then washed three times with 300 μL wash buffer (0.05% TWEEN®-20, polyethylene glycol sorbitan monolaurate, in PBS) and blocked (Meso Scale Diagnostics, R93BA-1; 5% BSA in PBS) for 2 h at RT with rotational shaking and then washed three times with wash buffer.
# as §1
# Cells were thawed and incubated in cell culture media (DMEM, 10% FBS, and 1% antibiotic cocktail) for 72 h. Cells were trypsinized, counted, and re-suspended to a concentration of 100,000 cells/mL in cell culture media. A 100 μL aliquot of the cell suspensions were plated at 10,000 cells per well in the compound containing 96 well microtiter plate and incubated for in a cell culture incubator (37° C., 5% CO2, 100% relative humidity). After 48 h, the medium was removed and 50-100 μL of lysis buffer (Meso Scale Diagnostics, R60TX-2) containing 1× halt protease inhibitor cocktail of (Thermo Scientific, Halt™ Protease Inhibitor Cocktail, 78430) per well was added to cells to provide a “cell lysate”. The plate was placed on a shaker at 4° C. for 30 minutes, then stored at −80° C.
# Cell lysate samples (25 μL) were transferred to the antibody-coated MSD plate and incubated overnight at 4° C. After removal of the lysates, the plate was washed three times with wash buffer, and 25 μL of Ataxin 3 recombinant rabbit monoclonal antibody (Invitrogen, #702788) secondary antibody (diluted to 0.25 μg/mL in 0.05% TWEEN®-20 in blocking buffer) was added to each well and incubated with shaking for 1-2 h at room temperature. Following incubation with the secondary antibody, the wells were rinsed with wash buffer and then 25 μL of Anti Rabbit Antibody Goat SULFO-TAG Labeled (Meso Scale Diagnostics, R32AB-1) detecting antibody (diluted to […] in 0.05% TWEEN®-20 in blocking buffer) was added to each well and incubated with shaking for 1 h at room temperature. After rinsing three times with wash buffer, 150 μL of Read Buffer T with surfactant (tris-based buffer containing tripropylamine, Meso Scale Diagnostics, R92TC-1) were added to each empty well, and the plate was imaged on a SI 6000 imager (MSD) according to manufacturers' instructions provided for 96- or 384-well plates.
# as §2
IC50 (ATXN3 pre-mRNA) [nM],IC50 [1] [nM],Compound
≤ 30,≤ 30,"N[C@@H]1CC=CC[C@H]1c1sc2c(NCc3ccco3)nc(Cl)nc2c1Cl [Compound 437, 6-((1R,6R)-6-aminocyclohex-3-en-1-yl)-2,7-dichloro-N-(furan-2-ylmethyl)thieno[3,2-d]pyrimidin-4-amine]"
30 to 300,30 to 300,"Cc1c([C@H]2CCC[C@@H]2N)sc2c(NCc3ccco3)cc(Cl)nc12 [Compound 120, 2-((1S,2S)-2-aminocyclopentyl)-5-chloro-N-(furan-2-ylmethyl)-3-methylthieno[3,2-b]pyridin-7-amine]"
≤ 30,≤ 30,"N[C@H]1CC=CC[C@@H]1c1sc2c(NCc3ccccc3)nc(Cl)nc2c1I [Compound 229, 6-((1S,6S)-6-aminocyclohex-3-en-1-yl)-N-benzyl-2-chloro-7-iodothieno[3,2-d]pyrimidin-4-amine]"
≤ 30,≤ 30,"2-((1R,2S,6R)-6-amino-2-methylcyclohex-3-en-1-yl)-3-bromo-5-chloro-N-(thiophen-2-ylmethyl)thieno[3,2-b]pyridin-7-amine and 2-((1S,2R,6S)-6-amino-2-methylcyclohex-3-en-1-yl)-3-bromo-5-chloro-N-(thiophen-2-ylmethyl)thieno[3,2-b]pyridin-7-amine [Compound 402]"
> 1000,> 1000,"N[C@@H]1CCCCC[C@@H]1c1cc2nc(Cl)cc(NCc3cccs3)c2s1 [Compound 88, 2-((1S,2R)-2-aminocycloheptyl)-5-chloro-N-(thiophen-2-ylmethyl)thieno[3,2-b]pyridin-7-amine]"
30 to 300,300 to 1000,"N[C@@H]1CC=CC[C@H]1c1sc2c(NCc3ccco3)nc(Cl)nc2c1Br [Compound 396, 6-((1R,6R)-6-aminocyclohex-3-en-1-yl)-7-bromo-2-chloro-N-(furan-2-ylmethyl)thieno[3,2-d]pyrimidin-4-amine]"
≤ 30,≤ 30,"N[C@@H]1CC=CC[C@H]1c1sc2c(NCc3cccs3)nc(Cl)nc2c1Cl.N[C@H]1CC=CC[C@@H]1c1sc2c(NCc3cccs3)nc(Cl)nc2c1Cl (mixture of isomers) [Compound 240, 6-((1R,6R)-6-aminocyclohex-3-en-1-yl)-2,7-dichloro-N-(thiophen-2-ylmethyl)thieno[3,2-d]pyrimidin-4-amine and 6-((1S,6S)-6-aminocyclohex-3-en-1-yl)-2,7-dichloro-N-(thiophen-2-ylmethyl)thieno[3,2-d]pyrimidin-4-amine]"
30 to 300,30 to 300,"6-((1S,6S)-6-aminocyclohex-3-en-1-yl)-4-((furan-2-ylmethyl)amino)-7-methylthieno[3,2-d]pyrimidine-2-carbonitrile [Compound 282]"
30 to 300,30 to 300,"N[C@@H]1CC=CC[C@H]1c1sc2c(NCc3ccco3)nc(Cl)nc2c1I [Compound 323, 6-((1R,6R)-6-aminocyclohex-3-en-1-yl)-2-chloro-N-(furan-2-ylmethyl)-7-iodothieno[3,2-d]pyrimidin-4-amine]"

# Second part, the compound before the results:
Compound,IC50 (ATXN3 pre-mRNA) [nM],IC50 [1] [nM]
"N[C@H]1CC=CC[C@@H]1c1sc2c(NCc3cccs3)cc(Cl)nc2c1C#CC[C@H](O)CO [Compound 216, (S)-5-(2-((1S,6S)-6-aminocyclohex-3-en-1-yl)-5-chloro-7-((thiophen-2-ylmethyl)amino)thieno[3,2-b]pyridin-3-yl)pent-4-yne-1,2-diol]",≤ 30,≤ 30
"2-((2R,3R,5R)-3-amino-5-methyltetrahydro-2H-pyran-2-yl)-3-bromo-5-chloro-N-(thiophen-2-ylmethyl)thieno[3,2-b]pyridin-7-amine and 2-((2S,3S,5S)-3-amino-5-methyltetrahydro-2H-pyran-2-yl)-3-bromo-5-chloro-N-(thiophen-2-ylmethyl)thieno[3,2-b]pyridin-7-amine [Compound 284]",30 to 300,30 to 300
"2-((3R,4S)-3-aminotetrahydro-2H-pyran-4-yl)-5-chloro-7-((thiophen-2-ylmethyl)amino)thieno[3,2-b]pyridine-3-carbonitrile and 2-((3S,4R)-3-aminotetrahydro-2H-pyran-4-yl)-5-chloro-7-((thiophen-2-ylmethyl)amino)thieno[3,2-b]pyridine-3-carbonitrile [Compound 393]",≤ 30,300 to 1000
"N[C@H]1CCCCC[C@@H]1c1sc2c(NCc3cccs3)cc(Cl)nc2c1Br [Compound 75, 2-((1S,2S)-2-aminocycloheptyl)-3-bromo-5-chloro-N-(thiophen-2-ylmethyl)thieno[3,2-b]pyridin-7-amine]",30 to 300,30 to 300
"CC#CCNc1cc(Cl)nc2c(Br)c([C@H]3CC(C)=C(C)C[C@@H]3N)sc12 [Compound 249, 2-((1S,6S)-6-amino-3,4-dimethylcyclohex-3-en-1-yl)-3-bromo-N-(but-2-yn-1-yl)-5-chlorothieno[3,2-b]pyridin-7-amine]",≤ 30,30 to 300
"N[C@@H]1CCCO[C@H]1c1sc2c(NCc3cccs3)cc(Cl)nc2c1Br [Compound 49, 2-((2R,3R)-3-aminotetrahydro-2H-pyran-2-yl)-3-bromo-5-chloro-N-(thiophen-2-ylmethyl)thieno[3,2-b]pyridin-7-amine]",> 1000,> 1000
"Cc1c([C@@H]2CC=CC[C@H]2N)n(C(F)F)c2c(NCc3ccco3)nc(Cl)nc12.Cc1c([C@H]2CC=CC[C@@H]2N)n(C(F)F)c2c(NCc3ccco3)nc(Cl)nc12 (mixture of isomers) [Compound 358, 6-((1R,6R)-6-aminocyclohex-3-en-1-yl)-2-chloro-5-(difluoromethyl)-N-(furan-2-ylmethyl)-7-methyl-5H-pyrrolo[3,2-d]pyrimidin-4-amine and 6-((1S,6S)-6-aminocyclohex-3-en-1-yl)-2-chloro-5-(difluoromethyl)-N-(furan-2-ylmethyl)-7-methyl-5H-pyrrolo[3,2-d]pyrimidin-4-amine]",30 to 300,30 to 300
"2-((1R,2R)-2-aminocyclohexyl)-N-benzyl-5-chloro-3-iodothieno[3,2-b]pyridin-7-amine and 2-((1S,2S)-2-aminocyclohexyl)-N-benzyl-5-chloro-3-iodothieno[3,2-b]pyridin-7-amine [Compound 295]",30 to 300,30 to 300
"3-bromo-5-chloro-2-((1R,2R)-2-(methylamino)cyclohexyl)-N-(thiophen-2-ylmethyl)thieno[3,2-b]pyridin-7-amine and 3-bromo-5-chloro-2-((1S,2S)-2-(methylamino)cyclohexyl)-N-(thiophen-2-ylmethyl)thieno[3,2-b]pyridin-7-amine [Compound 375]",30 to 300,30 to 300
